According to patent US10344061B2, “Peptide exhibiting hair growth promoting activity and/or melanin production promoting activity and use thereof” (CAREGEN CO., LTD., priority 2016, dated 2019):
Ends that are not written are not given here.

Tests used:
Type in all cases: cell-based
[1] = tested on: Human hair follicle dermal papilla cells; assay: DPC proliferation assay (MTT); conditions: serum-free medium, 3 days incubation, absorbance 550 nm, FIGS. 1a, 1b
Procedure: Human hair follicle dermal papilla cells were seeded at a density of 2×10^3 cells/well on 96-well plates, followed by incubation overnight. After changing into serum-free medium, the cells were treated with the peptides, followed by incubation for 3 days, and then the wells were treated with 4 mg/ml MTT solution, followed by reaction for 4 hours. The resulting formazan was solubilized with DNSO, and then the absorbance was measured at 550 nm using a microplate reader.

[2] = tested on: β-catenin; assay: β-Catenin activity test (western blotting); conditions: human hair follicle dermal papilla cells, 15 and 30 minutes, nuclear and cytoplasmic proteins, FIGS. 2a, 2b
Procedure: (§1) Human hair follicle dermal papilla cells were seeded at a density of 4×10^5 cells/well on 6-well plates, followed by incubation overnight. After changing into serum-free medium, the cells were treated with the peptides, followed by incubation for 15 and 30 minutes, and then the wells were harvested to isolate nuclear and cytoplasmic proteins. Western blotting was performed using β-catenin (Santa Cruz Biotechnology, USA) to compare β-catenin expression patterns.

[3] = tested on: GSK3β; assay: β-Catenin activity test: GSK3β phosphorylation; conditions: human hair follicle dermal papilla cells, 15 and 30 minutes, western blotting; FIGS. 2a, 2b
[4] = tested on: PI3K; assay: PI3K western blotting; conditions: human hair follicle dermal papilla cells, 15 and 30 minutes, FIGS. 3a, 3b
Procedure: as §1, with “to prepare the cell lysate.” for “to isolate nuclear and cytoplasmic proteins.”, “using PI3K antibodies” for “using β-catenin”, “USA) and phospho-ERK antibody (Cell Signaling Technology, USA)” for “USA)”, “compare protein” for “compare β-catenin”

[5] = tested on: ERK; assay: p-ERK western blotting; conditions: human hair follicle dermal papilla cells, 15 and 30 minutes, FIGS. 3a, 3b
Procedure: as §1, with “to prepare the cell lysate.” for “to isolate nuclear and cytoplasmic proteins.”, “using PI3K antibodies” for “using β-catenin”, “USA) and phospho-ERK antibody (Cell Signaling Technology, USA)” for “USA)”, “compare protein” for “compare β-catenin”

[6] = tested on: Bcl-2; assay: Bcl-2 western blotting; conditions: human hair follicle dermal papilla cells, 24 hours, FIGS. 4a, 4b
Procedure: (§2) Human hair follicle dermal papilla cells were seeded at a density of 4×10^5 cells/well on 6-well plate, followed by incubation overnight. After changing into serum-free medium, the cells were treated with the peptides, followed by incubation for 24 hours, and then the wells were harvested to prepare cell lysate. Western blotting was performed using Bcl-2 and Bax antibodies (Santa Cruz Biotechnology, USA) to compare protein expression patterns.

[7] = tested on: Bax; assay: Bax western blotting; conditions: human hair follicle dermal papilla cells, 24 hours, FIGS. 4a, 4b
Procedure: as §2

[8] = tested on: keratin-14; assay: Keratin-14 RT-PCR; conditions: human hair follicle dermal papilla cells, 24 hours, FIGS. 5a, 5b
Procedure: (§3) Human hair follicle dermal papilla cells were seeded at a density of 5×10^5 cells/well on 6-well plates, followed by incubation overnight. After changing into serum-free medium, the cells were treated with the peptides, followed by incubation for 24 hours, and then the wells were harvested to isolate RNA. After RNA quantification, cDNA synthesis was conducted using the cDNA synthesis kit (Intron, Korea), followed by PCR using PCR premix (Intron, Korea) and keratin-14 primers, and then electrophoresis was performed on 5% agarose gel to compare the mRNA expression level of the growth factor in respective sample treatment conditions.

[9] = tested on: melanocytes (B16F10 cell line); assay: Melanin measurement assay; conditions: 72 hours, intracellular melanin, absorbance 490 nm, FIGS. 9a, 9b
Procedure: After melanocytes (B16F10 cell line) in 6-well plates were cultured in an incubator at 37° C. for 24 hours, the medium of each plate was removed and exchanged with a fresh medium, followed by treatment with the present peptide with different concentrations. After the incubation for 72 hours, the culture medium was removed, and the cells were taken off and then transferred into 1.5-ml tubes, followed by centrifugation at 13,000 rpm for 3 minutes. The supernatant was removed, and cell pellets were collected to observe melanin. Then, 150 μl of 2 M NaOH was added to the cell pellets to lyse intracellular melanin at 60° C. for 30 minutes. Then, 100 μl of the supernatant obtained from the lysis was added into each well of 96-well plates, and the absorbance was measured at 490 nm.

[10] = tested on: VEGF; assay: VEGF RT-PCR; conditions: human hair follicle dermal papilla cells, 24 hours, RT-PCR (mRNA); FIG. 6
Procedure: as §3, with “4×10^5” for “5×10^5”, “plate,” for “plates,”, “respective KGF and VEGF” for “keratin-14”, “levels” for “level”, “factors” for “factor”, “in” for “in respective”

[11] = tested on: KGF; assay: KGF RT-PCR; conditions: human hair follicle dermal papilla cells, 24 hours, RT-PCR (mRNA); FIG. 6
Procedure: as §3, with “4×10^5” for “5×10^5”, “plate,” for “plates,”, “respective KGF and VEGF” for “keratin-14”, “levels” for “level”, “factors” for “factor”, “in” for “in respective”

[12] = tested on: TGF-β1; assay: TGF-β1 RT-PCR; conditions: human hair follicle dermal papilla cells, 24 hours, RT-PCR (mRNA); FIG. 7
Procedure: as §3, with “4×10^5” for “5×10^5”, “plate,” for “plates,”, “TGF-β1” for “keratin-14”, “in” for “in respective”

[13] = tested on: MSX2; assay: MSX2 RT-PCR; conditions: human hair follicle dermal papilla cells, 24 hours, RT-PCR (mRNA); FIG. 8
Procedure: as §3, with “4×10^5” for “5×10^5”, “plate,” for “plates,”, “MSX2” for “keratin-14”, “in” for “in respective”

[14] = tested on: MITF; assay: Melanogenesis-related gene RT-PCR: MITF; conditions: B16F10 cell line, 72 hours, FIG. 10
Procedure: (§4) Melanocytes (B16F10 cell line) were incubated on 6-well culture plates for 24 hours, and were treated with the peptides of the present invention with different concentrations. After RNA was extracted from the cells incubated for 72 hours, cDNA was prepared. PCR was performed by using respective primers specific to MITF and tyrosinase, which are involved in melanogenesis, and the expression changes of the respective genes were observed.

[15] = tested on: tyrosinase; assay: Melanogenesis-related gene RT-PCR: tyrosinase; conditions: B16F10 cell line, 72 hours, FIG. 10
Procedure: as §4

[16] = tested on: TRP1; assay: Melanogenesis-related gene RT-PCR: TRP1; conditions: B16F10 cell line, 72 hours, FIG. 10 legend
[17] = tested on: MITF; assay: Melanogenesis-related protein western blotting: MITF; conditions: B16F10 cell line, 72-hour incubation, FIG. 11
Procedure: (§5) Melanocytes (B16F10 cell line) were incubated on 6-well culture plates for 24 hours, and were treated with the peptides of the present invention with different concentrations. After 72-hour incubation, the cells were lysed, and the cells were subjected to western blotting using specific antibodies (two types, both from Santa Cruz Biotechnology, USA) to investigate the expression of MITF and tyrosinase, which are factors involved in melanogenesis.

[18] = tested on: tyrosinase; assay: Melanogenesis-related protein western blotting: tyrosinase; conditions: B16F10 cell line, 72-hour incubation, FIG. 11
Procedure: as §5

Sequence | growth of human hair follicle dermal papilla cells [1] | activity of β-catenin [2] | phosphorylation level of GSK3β [3] | expression of PI3K [4] | phosphorylation of ERK [5] | expression of the anti-apoptotic protein Bcl-2 [6] | expression of the apoptosis-related protein Bax [7] | mRNA expression of keratin-14 [8] | melanogenesis in melanocytes [9] | expression of VEGF [10] | expression of KGF [11] | expression of TGF-β1 [12] | expression of MSX2 [13] | mRNA expression of MITF transcriptional factor [14] | mRNA expression of tyrosinase enzyme [15] | mRNA expression of TRP1 [16] | protein expression of MITF transcription factor [17] | protein expression of tyrosinase enzyme [18]
KYLLVHRPYYRR [SEQ ID NO: 2] | stimulated in a dose-dependent manner | increased | increased | increased | increased | increased | decreased | increased | increased | – | – | – | – | – | – | – | – | –
ACTSSQLRSC (cysteine pairing not given here) [SEQ ID NO: 1] | stimulated in a dose-dependent manner | increased | increased | increased | increased | increased | decreased | increased | increased | increased | increased | increased | increased | increased | increased | increases | increased | increased
